Patent publication US7795290B2 (Genentech, Inc., priority 2004, dated 2010)

Target: T1, AKT1 (Homo sapiens, UniProt P31749)
T1 construct: purchased Upstate 14-276
Experiment: HTS ATP-utilizing enzyme assay, off-chip mobility-shift (Caliper HTS 250)
Assay type: biochemical
Details: kinase named = inhibitory activity/selectivity; test compound 10 μM; active = greater than three-sigma from mean
Excerpt: The following procedures describe the reagent and plate preparation for a HTS of an ATP-utilizing enzyme, such as a protein kinase, run in an off-chip mobility-shift assay format. The following provides an HTS protocol for running a protein kinase HTS screen on a Caliper HTS 250 microfluidics system. The following parameters are dependent on the protein kinase used and can be determined by one skilled in the art as part of a typical assay development process. For example, the peptide substrate used can be identified from the current literature, by screening a peptide library of potential protein kinase substrates, or by other applicable means accepted in the field.
The following table provides typical screen assay parameters appropriate for a Caliper HTS 250 microfluidics system used to assay AKT1. Parameters used to assay other protein kinases can be determined by one skilled in the art.
Assays to determine the kinase inhibitory activity of chemical entities of the present disclosure were performed using a Caliper HTS 250 microfluidics device, Greiner U-bottom assay plates, a Multidrop for transfer of reagents, and Biomek FX (AMNCBM03) software. Initially, 2.4 μL of a 1 mM solution of a test compound in 100% DMSO was added to a well of the Greiner U-bottom plate. A single Greiner U-bottom plate having 24×16 wells could include multiple test compounds. […] Using the Biomek FX, 10 μL of 0.5 M EDTA was added by the span-8 to wells, indicated as 100% Control and 2.4 μL of 100% DMSO was added by the span-8 to wells, indicated as 0% Control. […] The total reaction volume in each well was 25 μL, and the concentration of the test compound was 10 μM. The assay plate was incubated for 2.5 hrs at 20° C. to 22° C. […] The inhibition of the ATP-utilizing enzyme, such as a particular protein kinase, was determined by measuring the ratio of the peptide substrate to phosphorylated product for each well of the assay plate using the Caliper HTS 250 system.
The use of three-sigma statistical limits represents a conservative method for declaring potential hits among targets. The three-sigma activity, as well as the mean population activity, can be different for each target enzyme.
Each chemical entity listed in Table 2 was tested for protein kinase inhibitory activity according to the biological assays and definitions of protein kinase inhibitory activity as described herein.

T1 sequence (P31749 whole entry): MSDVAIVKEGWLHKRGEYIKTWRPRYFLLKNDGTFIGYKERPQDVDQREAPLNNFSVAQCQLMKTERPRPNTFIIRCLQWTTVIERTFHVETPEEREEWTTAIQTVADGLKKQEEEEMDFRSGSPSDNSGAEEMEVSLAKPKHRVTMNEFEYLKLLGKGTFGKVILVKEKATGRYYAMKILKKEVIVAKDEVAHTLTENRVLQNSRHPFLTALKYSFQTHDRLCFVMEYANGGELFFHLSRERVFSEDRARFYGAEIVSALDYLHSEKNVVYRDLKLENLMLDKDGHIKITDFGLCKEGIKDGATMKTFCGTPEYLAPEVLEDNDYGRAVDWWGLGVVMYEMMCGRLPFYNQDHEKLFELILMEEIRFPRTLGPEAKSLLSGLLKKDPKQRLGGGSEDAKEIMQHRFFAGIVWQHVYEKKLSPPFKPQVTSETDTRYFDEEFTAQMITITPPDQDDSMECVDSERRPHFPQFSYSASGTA

Activity | SMILES
AKT1 | CCN(CC)CCCN(C(=O)c1ccccc1)c1nc(-c2cc(OC)ccc2OC)cs1 [N-(3-(diethylamino)propyl)-N-(4-(2,5-dimethoxyphenyl)thiazol-2-yl)benzamide]
AKT1 | CCN(CC)CCCN(C(=O)c1ccco1)c1nc(-c2cc(OC)ccc2OC)cs1 [N-(3-(diethylamino)propyl)-N-(4-(2,5-dimethoxyphenyl)thiazol-2-yl)furan-2-carboxamide]
AKT1 | CCN(CC)CCCN(C(=O)c1cccs1)c1nc(-c2cc(OC)ccc2OC)cs1 [N-(3-(diethylamino)propyl)-N-(4-(2,5-dimethoxyphenyl)thiazol-2-yl)thiophene-2-carboxamide]
AKT1 | CCN(CC)CCCN(C(=O)c1cccs1)c1nc(-c2ccc(OC)c(OC)c2)cs1 [N-(3-(diethylamino)propyl)-N-(4-(3,4-dimethoxyphenyl)thiazol-2-yl)thiophene-2-carboxamide]
AKT1 | CCN(CC)CCCN(C(=O)c1ccccc1)c1nc(-c2ccc(OC)cc2)cs1 [N-(3-(diethylamino)propyl)-N-(4-(4-methoxyphenyl)thiazol-2-yl)benzamide]
AKT1 | CCN(CC)CCCN(C(=O)c1ccco1)c1nc(-c2ccccc2)cs1 [N-(3-(diethylamino)propyl)-N-(4-phenylthiazol-2-yl)furan-2-carboxamide]
AKT1 | CCN(CC)CCCN(C(=O)c1cccs1)c1nc(-c2ccccc2)cs1 [N-(3-(diethylamino)propyl)-N-(4-phenylthiazol-2-yl)thiophene-2-carboxamide]
AKT1 | CS(=O)(=O)Nc1cccc(NC(=O)c2csc(N(CCCN3CCOCC3)C(=O)c3cccs3)n2)c1 [N-(3-(methylsulfonamido)phenyl)-2-(N-(3-morpholinopropyl)thiophene-2-carboxamido)thiazole-4-carboxamide]
AKT1 | CC(=O)NCCCN(C(=O)c1cccs1)c1nc(-c2cc3ccccc3o2)cs1 [N-(3-acetamidopropyl)-N-(4-(benzofuran-2-yl)thiazol-2-yl)thiophene-2-carboxamide]
AKT1 | NC(=O)c1cccc(NC(=O)c2csc(N(CCCN3CCOCC3)C(=O)c3cccs3)n2)c1 [N-(3-carbamoylphenyl)-2-(N-(3-morpholinopropyl)thiophene-2-carboxamido)thiazole-4-carboxamide]
AKT1 | O=C(NCc1cccc(Cl)c1)c1csc(N(CCCN2CCOCC2)C(=O)c2cccs2)n1 [N-(3-chlorobenzyl)-2-(N-(3-morpholinopropyl)thiophene-2-carboxamido)thiazole-4-carboxamide]
AKT1 | COc1cccc(CNC(=O)c2csc(N(CCCN3CCOCC3)C(=O)c3cccs3)n2)c1 [N-(3-methoxybenzyl)-2-(N-(3-morpholinopropyl)thiophene-2-carboxamido)thiazole-4-carboxamide]
AKT1 | COc1cccc(NC(=O)c2csc(N(CCCN3CCOCC3)C(=O)c3cccs3)n2)c1 [N-(3-methoxyphenyl)-2-(N-(3-morpholinopropyl)thiophene-2-carboxamido)thiazole-4-carboxamide]
AKT1 | O=C(c1cccs1)N(CCCN1CCOCC1)c1nc(-c2ccccc2C(F)(F)F)cs1 [N-(3-morpholinopropyl)-N-(4-(2-(trifluoromethyl)phenyl)thiazol-2-yl)thiophene-2-carboxamide]
AKT1 | O=C(c1cccs1)N(CCCN1CCOCC1)c1nc(-c2ccccc2[N+](=O)[O-])cs1 [N-(3-morpholinopropyl)-N-(4-(2-nitrophenyl)thiazol-2-yl)thiophene-2-carboxamide]
AKT1 | O=C(c1cccs1)N(CCCN1CCOCC1)c1nc(-c2cccc(C(F)(F)F)c2)cs1 [N-(3-morpholinopropyl)-N-(4-(3-(trifluoromethyl)phenyl)thiazol-2-yl)thiophene-2-carboxamide]
AKT1 | O=C1COc2ccc(-c3csc(N(CCCN4CCOCC4)C(=O)c4cccs4)n3)cc2N1 [N-(3-morpholinopropyl)-N-(4-(3-oxo-3,4-dihydro-2H-benzo[b][1,4]oxazin-6-yl)thiazol-2-yl)thiophene-2-carboxamide]
AKT1 | O=C(c1ccco1)N(CCCN1CCOCC1)c1nc(-c2cc(-c3ccccc3)no2)cs1 [N-(3-morpholinopropyl)-N-(4-(3-phenylisoxazol-5-yl)thiazol-2-yl)furan-2-carboxamide]
AKT1 | O=C(c1cccs1)N(CCCN1CCOCC1)c1nc(-c2cc(-c3ccccc3)no2)cs1 [N-(3-morpholinopropyl)-N-(4-(3-phenylisoxazol-5-yl)thiazol-2-yl)thiophene-2-carboxamide]

Activity | SMILES
AKT1 | O=C(c1cccs1)N(CCCN1CCOCC1)c1nc(-c2ccc(N3CCCC3)cc2)cs1 [N-(3-morpholinopropyl)-N-(4-(4-(pyrrolidin-1-yl)phenyl)thiazol-2-yl)thiophene-2-carboxamide]
AKT1 | O=C(c1cccs1)N(CCCN1CCOCC1)c1nc(-c2ccc(OC(F)(F)F)cc2)cs1 [N-(3-morpholinopropyl)-N-(4-(4-(trifluoromethoxy)phenyl)thiazol-2-yl)thiophene-2-carboxamide]
AKT1 | CCCCCc1ccc(-c2csc(N(CCCN3CCOCC3)C(=O)c3cccs3)n2)cc1 [N-(3-morpholinopropyl)-N-(4-(4-pentylphenyl)thiazol-2-yl)thiophene-2-carboxamide]
AKT1 | O=C(c1cccs1)N(CCCN1CCOCC1)c1nc(-c2ccc(-c3ccccn3)s2)cs1 [N-(3-morpholinopropyl)-N-(4-(5-(pyridin-2-yl)thiophen-2-yl)thiazol-2-yl)thiophene-2-carboxamide]
AKT1 | O=C(c1cccs1)N(CCCN1CCOCC1)c1nc(-c2cc3cc([N+](=O)[O-])ccc3o2)cs1 [N-(3-morpholinopropyl)-N-(4-(5-nitrobenzofuran-2-yl)thiazol-2-yl)thiophene-2-carboxamide]
AKT1 | O=C(c1cccs1)N(CCCN1CCOCC1)c1nc(-c2ccc3ccccc3c2)cs1 [N-(3-morpholinopropyl)-N-(4-(naphthalen-2-yl)thiazol-2-yl)thiophene-2-carboxamide]
AKT1 | O=C(c1cccs1)N(CCCN1CCOCC1)c1nc(-c2ccccn2)cs1 [N-(3-morpholinopropyl)-N-(4-(pyridin-2-yl)thiazol-2-yl)thiophene-2-carboxamide]
AKT1 | O=C(c1cccs1)N(CCCN1CCOCC1)c1nc(-c2cccs2)cs1 [N-(3-morpholinopropyl)-N-(4-(thiophen-2-yl)thiazol-2-yl)thiophene-2-carboxamide]
AKT1 | O=C(c1cccs1)N(CCCN1CCOCC1)c1nc(C(F)(F)F)cs1 [N-(3-morpholinopropyl)-N-(4-(trifluoromethyl)thiazol-2-yl)thiophene-2-carboxamide]
AKT1 | Cc1ccc(-c2csc(N(CCCN3CCOCC3)C(=O)c3cccs3)n2)cc1 [N-(3-morpholinopropyl)-N-(4-p-tolylthiazol-2-yl)thiophene-2-carboxamide]
AKT1 | O=C(c1ccccc1)N(CCCN1CCOCC1)c1nc(-c2ccccc2)cs1 [N-(3-morpholinopropyl)-N-(4-phenylthiazol-2-yl)benzamide]
AKT1 | O=C(c1ccco1)N(CCCN1CCOCC1)c1nc(-c2ccccc2)cs1 [N-(3-morpholinopropyl)-N-(4-phenylthiazol-2-yl)furan-2-carboxamide]
AKT1 | O=C(c1cccs1)N(CCCN1CCOCC1)c1nc(-c2ccccc2)cs1 [N-(3-morpholinopropyl)-N-(4-phenylthiazol-2-yl)thiophene-2-carboxamide]
AKT1 | O=C(c1cccs1)N(CCCN1CCOCC1)c1nc(-c2cc3ccccc3[nH]2)cs1 [N-(4-(1H-indol-2-yl)thiazol-2-yl)-N-(3-morpholinopropyl)thiophene-2-carboxamide]
AKT1 | O=C(c1cccs1)N(CCCN1CCOCC1)c1nc(-c2ccc3c(c2)OCCO3)cs1 [N-(4-(2,3-dihydrobenzo[b][1,4]dioxin-6-yl)thiazol-2-yl)-N-(3-morpholinopropyl)thiophene-2-carboxamide]
AKT1 | O=C(c1cccs1)N(CCCN1CCOCC1)c1nc(-c2ccc(Cl)cc2Cl)cs1 [N-(4-(2,4-dichlorophenyl)thiazol-2-yl)-N-(3-morpholinopropyl)thiophene-2-carboxamide]
AKT1 | COc1ccc(-c2csc(N(CCCN3CCOCC3)C(=O)c3cccs3)n2)c(OC)c1 [N-(4-(2,4-dimethoxyphenyl)thiazol-2-yl)-N-(3-morpholinopropyl)thiophene-2-carboxamide]
AKT1 | Cc1ccc(-c2csc(N(CCCN3CCOCC3)C(=O)c3cccs3)n2)c(C)c1 [N-(4-(2,4-dimethylphenyl)thiazol-2-yl)-N-(3-morpholinopropyl)thiophene-2-carboxamide]
